Results as given in ChEMBL document CHEMBL3286379, “Design and synthesis of pyrimidine molecules endowed with thiazolidin-4-one as new anticancer agents” (Eur J Med Chem, 2014).

Key:
[1] = Growth inhibition of human UO31 cells after 48 hrs by sulforhodamine B assay; type: functional; conditions: UO-31, 48 h
HT-29 = test: Growth inhibition of human HT-29 cells after 48 hrs by sulforhodamine B assay; type: functional; conditions: HT-29, 48 h
786-0 = test: Growth inhibition of human 786-0 cells after 48 hrs by sulforhodamine B assay; type: functional; conditions: 786-0, 48 h
RPMI-8226 = test: Growth inhibition of human RPMI8226 cells after 48 hrs by sulforhodamine B assay; type: functional; conditions: RPMI-8226, 48 h
Rattus norvegicus = test: Hepatotoxicity in rat assessed as SGPT level at 0.12 mg/kg, po after 12 days (reference value: 31.17 +/- 0.39 U/mL); type: toxicity, organism-based; design: dose 0.12 mg/kg, route oral; conditions: in vivo, 288 h
SN12C = test: Growth inhibition of human SN12C cells after 48 hrs by sulforhodamine B assay; type: functional
HCT-116 = test: Growth inhibition of human HCT116 cells after 48 hrs by sulforhodamine B assay; type: functional; conditions: HCT-116, 48 h
IGROV-1 = test: Growth inhibition of human IGROV1 cells after 48 hrs by sulforhodamine B assay; type: functional; conditions: IGROV-1, 48 h
PC-3 = test: Growth inhibition of human PC3 cells after 48 hrs by sulforhodamine B assay; type: functional; conditions: PC-3, 48 h
MDA-MB-435 = test: Growth inhibition of human MDA-MB-435 cells after 48 hrs by sulforhodamine B assay; type: functional; conditions: MDA-MB-435, 48 h
[2] = Growth inhibition of human RXF393 cells after 48 hrs by sulforhodamine B assay; type: functional; conditions: RXF 393, 48 h
ACHN = test: Growth inhibition of human ACHN cells after 48 hrs by sulforhodamine B assay; type: functional
SK-MEL-2 = test: Growth inhibition of human SK-MEL-2 cells after 48 hrs by sulforhodamine B assay; type: functional; conditions: SK-MEL-2, 48 h
DU-145 = test: Growth inhibition of human DU145 cells after 48 hrs by sulforhodamine B assay; type: functional; conditions: DU-145, 48 h
Malme-3M = test: Growth inhibition of human MALME-3M cells after 48 hrs by sulforhodamine B assay; type: functional
SF-268 = test: Growth inhibition of human SF268 cells after 48 hrs by sulforhodamine B assay; type: functional; conditions: SF-268, 48 h
[3] = Growth inhibition of human HCC2998 cells after 48 hrs by sulforhodamine B assay; type: functional; conditions: HCC 2998, 48 h
A549 = test: Growth inhibition of human A549/ATCC cells after 48 hrs by sulforhodamine B assay; type: functional; conditions: A549, 48 h
[4] = Growth inhibition of human HOP92 cells after 48 hrs by sulforhodamine B assay; type: functional; conditions: HOP-92, 48 h
MDA-MB-231 = test: Growth inhibition of human MDA-MB-231 cells after 48 hrs by sulforhodamine B assay; type: functional; conditions: MDA-MB-231, 48 h
[5] = read-out: LC50 (the source's name)
[6] = read-out: pLC50 (the source's name) (converted)

## Nc1nc(-c2ccccc2Cl)cc(-c2ccc(Cl)cc2Cl)n1
[1]; read-out: GI50
  GI50: 13.5 µM
[1]; [5]
  CC50: > 100 µM
[1]; read-out: TGI
  TGI: > 100 µM
[1]; read-out: pGI50 (converted)
  GI50: 13.5 µM
[1]; [6]
  CC50: > 100 µM
[1]; read-out: pTGI
  TGI: > 100 µM
HT-29; read-out: GI50
  GI50: 4.32 µM
HT-29; [5]
  CC50: > 100 µM
HT-29; read-out: TGI
  TGI: 24.3 µM
HT-29; read-out: pGI50 (converted)
  GI50: 4.37 µM
HT-29; [6]
  CC50: > 100 µM
HT-29; read-out: pTGI (converted)
  TGI: 24.5 µM
786-0; read-out: GI50
  GI50: 20.2 µM
786-0; [5]
  CC50: > 100 µM
786-0; read-out: TGI
  TGI: > 100 µM
786-0; read-out: pGI50 (converted)
  GI50: 20.4 µM
786-0; [6]
  CC50: > 100 µM
786-0; read-out: pTGI
  TGI: > 100 µM
RPMI-8226; read-out: GI50
  GI50: 3.1 µM
RPMI-8226; [5]
  CC50: > 100 µM
RPMI-8226; read-out: TGI
  TGI: 17.6 µM
RPMI-8226; read-out: pGI50 (converted)
  GI50: 3.09 µM
RPMI-8226; [6]
  CC50: > 100 µM
RPMI-8226; read-out: pTGI (converted)
  TGI: 17.4 µM
Rattus norvegicus
  Activity: 29.11 U/ml
SN12C; read-out: GI50
  GI50: 13.1 µM
SN12C; [5]
  CC50: > 100 µM
SN12C; read-out: TGI
  TGI: > 100 µM
SN12C; read-out: pGI50 (converted)
  GI50: 13.2 µM
SN12C; [6]
  CC50: > 100 µM
SN12C; read-out: pTGI
  TGI: > 100 µM
HCT-116; read-out: GI50
  GI50: 4.27 µM
HCT-116; [5]
  CC50: > 100 µM
HCT-116; read-out: TGI
  TGI: > 100 µM
HCT-116; read-out: pGI50 (converted)
  GI50: 4.27 µM
HCT-116; [6]
  CC50: > 100 µM
HCT-116; read-out: pTGI
  TGI: > 100 µM
IGROV-1; read-out: GI50
  GI50: 12.3 µM
IGROV-1; [5]
  CC50: > 100 µM
IGROV-1; read-out: TGI
  TGI: > 100 µM
IGROV-1; read-out: pGI50 (converted)
  GI50: 12.3 µM
IGROV-1; [6]
  CC50: > 100 µM
IGROV-1; read-out: pTGI
  TGI: > 100 µM
PC-3; read-out: GI50
  GI50: 5.43 µM
PC-3; [5]
  CC50: > 100 µM
PC-3; read-out: TGI
  TGI: > 100 µM
PC-3; read-out: pGI50 (converted)
  GI50: 5.37 µM
PC-3; [6]
  CC50: > 100 µM
PC-3; read-out: pTGI
  TGI: > 100 µM
MDA-MB-435; read-out: GI50
  GI50: 1.97 µM
MDA-MB-435; [5]
  CC50: > 100 µM
MDA-MB-435; read-out: TGI
  TGI: 4.93 µM
MDA-MB-435; read-out: pGI50 (converted)
  GI50: 1.95 µM
MDA-MB-435; [6]
  CC50: > 100 µM
MDA-MB-435; read-out: pTGI (converted)
  TGI: 4.9 µM
[2]; read-out: GI50
  GI50: 2.67 µM
[2]; [5]
  CC50: > 100 µM
[2]; read-out: TGI
  TGI: 10.7 µM
[2]; read-out: pGI50 (converted)
  GI50: 2.69 µM
[2]; [6]
  CC50: > 100 µM
[2]; read-out: pTGI (converted)
  TGI: 10.7 µM
ACHN; read-out: GI50
  GI50: 10.4 µM
ACHN; [5]
  CC50: > 100 µM
ACHN; read-out: TGI
  TGI: > 100 µM
ACHN; read-out: pGI50 (converted)
  GI50: 10.5 µM
ACHN; [6]
  CC50: > 100 µM
ACHN; read-out: pTGI
  TGI: > 100 µM
SK-MEL-2; read-out: GI50
  GI50: 6.1 µM
SK-MEL-2; [5]
  CC50: > 100 µM
SK-MEL-2; read-out: TGI
  TGI: 44.7 µM
SK-MEL-2; read-out: pGI50 (converted)
  GI50: 6.17 µM
SK-MEL-2; [6]
  CC50: > 100 µM
SK-MEL-2; read-out: pTGI (converted)
  TGI: 44.7 µM
DU-145; read-out: GI50
  GI50: 5.33 µM
DU-145; [5]
  CC50: > 100 µM
DU-145; read-out: TGI
  TGI: 70.1 µM
DU-145; read-out: pGI50 (converted)
  GI50: 5.37 µM
DU-145; [6]
  CC50: > 100 µM
DU-145; read-out: pTGI (converted)
  TGI: 70.8 µM
Malme-3M; read-out: GI50
  GI50: 17.7 µM
Malme-3M; [5]
  CC50: > 100 µM
Malme-3M; read-out: TGI
  TGI: > 100 µM
Malme-3M; read-out: pGI50 (converted)
  GI50: 17.8 µM
Malme-3M; [6]
  CC50: > 100 µM
Malme-3M; read-out: pTGI
  TGI: > 100 µM
SF-268; read-out: GI50
  GI50: 5.01 µM
SF-268; [5]
  CC50: > 100 µM
SF-268; read-out: TGI
  TGI: 81.6 µM
SF-268; read-out: pGI50 (converted)
  GI50: 5.01 µM
SF-268; [6]
  CC50: > 100 µM
SF-268; read-out: pTGI (converted)
  TGI: 81.3 µM
[3]; read-out: GI50
  GI50: 7.19 µM
[3]; [5]
  CC50: > 100 µM
[3]; read-out: TGI
  TGI: 44 µM
[3]; read-out: pGI50 (converted)
  GI50: 7.24 µM
[3]; [6]
  CC50: > 100 µM
[3]; read-out: pTGI
  TGI: 43.7 µM
A549; read-out: GI50
  GI50: 4.81 µM
A549; [5]
  CC50: > 100 µM
A549; read-out: TGI
  TGI: > 100 µM
A549; read-out: pGI50 (converted)
  GI50: 4.79 µM
A549; [6]
  CC50: > 100 µM
A549; read-out: pTGI
  TGI: > 100 µM
[4]; read-out: GI50
  GI50: 0.527 µM
[4]; [5]
  CC50: > 100 µM
[4]; read-out: TGI
  TGI: 7.62 µM
[4]; read-out: pGI50 (converted)
  GI50: 0.525 µM
[4]; [6]
  CC50: > 100 µM
[4]; read-out: pTGI (converted)
  TGI: 7.59 µM
MDA-MB-231; read-out: GI50
  GI50: 9.3 µM
MDA-MB-231; [5]
  CC50: > 100 µM
MDA-MB-231; read-out: TGI
  TGI: > 100 µM
MDA-MB-231; read-out: pGI50 (converted)
  GI50: 9.33 µM
MDA-MB-231; [6]
  CC50: > 100 µM
MDA-MB-231; read-out: pTGI
  TGI: > 100 µM
